Strand notation (5' to 3'): a small letter for the sugar, then the base; units joined by * are phosphorothioate-linked, units joined directly phosphodiester-linked; [ ] holds rarer units or linkages, { } end groups; capitals alone tell only the bases. [ms] = mesyl phosphoramidate linkage; e = 2'-O-(2-methoxyethyl) (MOE); k = constrained ethyl (cEt); [5mC] = 5-methylcytosine; d = 2'-deoxy (DNA)
Legend:
human APOE RNA [1] = assay: Dose-dependent inhibition of human APOE RNA in HepG2 cells, electroporation, 24 hours (Example 6); type: cell-based
Procedure: Modified oligonucleotides selected from the examples above were tested at various doses in HepG2.
HepG2 cells plated at a density of 50,000 cells per well were treated by electroporation with various concentrations of modified oligonucleotide as specified in the tables below. […] APOE RNA levels were measured using the human primer probe set RTS3073 (described herein above). APOE RNA levels were normalized to human GAPDH. Human GAPDH was amplified using human primer probe set RTS 104 (described herein above). Results are presented as percent APOE RNA, relative to the amount of APOE RNA in untreated control cells (% UTC). The half maximal inhibitory concentration (IC50) of each modified oligonucleotide was calculated in GraphPad Prism 10 (GraphPad Software, San Diego, CA) and is also presented in the tables below.

human APOE RNA [2] = assay: Activity in APOE C57BL/6NTac-Apoeem7250 knock-in mice, single ICV bolus, 4 weeks (Example 10); type: in vivo; settings: single ICV bolus 300 μg
Procedure: Modified oligonucleotides described above were tested in the APOE C57BL/6NTac-Apoeem7250 knock-in mouse model described above.
APOE C57BL/6NTac-Apoeem7250 knock-in mice were divided into groups of 2-4 mice each. Each mouse received a single ICV bolus of 300 μg of modified oligonucleotide. A group of 3-4 mice received a single ICV bolus with PBS as a negative control.
Four weeks post treatment, mice were sacrificed and RNA was extracted from cortical brain tissue and spinal cord for quantitative real-time RT-PCR analysis of RNA expression of APOE using human primer probe set RTS3073 (described herein above). APOE RNA levels were normalized to mouse Ppia. Mouse Ppia was amplified using primer probe set m_cyclo24 (described herein above). Results are presented as percent human APOE RNA relative to the amount of human APOE RNA in PBS treated animals, (% control). Each experiment is identified in separate tables below.

human APOE RNA [3] = assay: Activity in APOE C57BL/6NTac-Apoeem7250 knock-in mice, single ICV bolus, 16 weeks (Example 12); type: in vivo; settings: single ICV bolus 300 μg, 16 weeks post treatment, normalized to mouse Ppia
Summary of the method: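 A single 300 μg intracerebroventricular dose was given, with PBS-treated mice as reference; cortical and spinal cord tissue was taken 16 weeks later. RT-qPCR quantified human APOE RNA, Ppia-normalized, expressed relative to PBS animals (% control).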

human APOE RNA [4] = assay: Dose-dependent inhibition of human APOE RNA in HepG2 cells, electroporation, 50,000 cells per well, RT-PCR normalized to GAPDH (Example 4, Tables 8-10); type: cell-based; settings: HepG2, electroporation, 24-hour treatment
Procedure: Modified oligonucleotides selected from the examples above were tested at various doses in HepG2 cells. The modified oligonucleotides were tested in a series of experiments that had the same culture conditions. Each experiment is identified in separate tables below.
HepG2 cells plated at a density of 50,000 cells per well were treated by electroporation with various concentrations of modified oligonucleotide as specified in the tables below. […] APOE RNA levels were measured using the human primer probe set RTS3073 (forward sequence […], designated herein as SEQ ID NO: 7; reverse sequence CCATCAGCGCCCTCAGTT, designated herein as SEQ ID NO: 8; probe sequence […], designated herein as SEQ ID NO:9). APOE RNA levels were normalized to human GAPDH. […] Results are presented as percent APOE RNA, relative to the amount of APOE RNA in untreated control cells (UTC).

[5] = Cortex, C57BL/6NTac-Apoeem7250 knock-in mice, 4 weeks (Table 22)
[6] = Spinal Cord, C57BL/6NTac-Apoeem7250 knock-in mice, 4 weeks (Table 22)
[7] = cortex, 4 weeks post treatment, normalized to mouse Ppia
[8] = spinal cord, 4 weeks post treatment, normalized to mouse Ppia

Substance | IC50 (human APOE RNA [1]) [µM] | APOE RNA (% UTC) (human APOE RNA [1]; 5 nM) | APOE RNA (% UTC) (human APOE RNA [1]; 13 nM) | APOE RNA (% UTC) (human APOE RNA [1]; 33 nM) | APOE RNA (% UTC) (human APOE RNA [1]; 82 nM) | APOE RNA (% UTC) (human APOE RNA [1]; 205 nM) | APOE RNA (% UTC) (human APOE RNA [1]; 512 nM) | APOE RNA (% UTC) (human APOE RNA [1]; 1,280 nM) | APOE RNA (% UTC) (human APOE RNA [1]; 3,200 nM) | APOE RNA (% UTC) (human APOE RNA [1]; 8,000 nM) | APOE RNA (% UTC) (human APOE RNA [1]; 20,000 nM) | APOE RNA (% control) Cortex (human APOE RNA [2]; [5]) [% control] | APOE RNA (% control) Spinal Cord (human APOE RNA [2]; [6]) [% control] | APOE RNA (% control) Cortex (human APOE RNA [3]) [% control] | APOE RNA (% control) Spinal Cord (human APOE RNA [3]) [% control] | APOE RNA (% UTC) (human APOE RNA [4]; 5 nM) | APOE RNA (% UTC) (human APOE RNA [4]; 33 nM) | APOE RNA (% UTC) (human APOE RNA [4]; 82 nM) | APOE RNA (% UTC) (human APOE RNA [4]; 205 nM) | APOE RNA (% UTC) (human APOE RNA [4]; 512 nM) | other results
1736532 (e[5mC]*eT*eT*eG*kG*kTdG[ms]dA[ms]dA[ms]dT*d[5mC]*dT*dT*dT*dA[ms]dT*eT*eA*eA*eA; antisense) [Compound 1736532] | 0.28 | 81 | 85 | 74 | 71 | 54 | 41 | 32 | 17 | 23 | 5 | 30 | 38 | 34 | 45 | – | – | – | – | – | –
1736536 (e[5mC]*eT*eT*eG*kGkT*dG[ms]dA[ms]dA[ms]dT*d[5mC]*dT*dT*dT*dA[ms]dT*eT*eA*eA*eA; antisense) [Compound 1736536] | 0.62 | 97 | 102 | 79 | 79 | 63 | 58 | 43 | 25 | 9 | 6 | 31 | 53 | 36 | 31 | – | – | – | – | – | –
1736493 (e[5mC]*eTeT*eG*eG*eT*dG[ms]dA[ms]dA[ms]dT*d[5mC]*dT*dT*dT*dA[ms]dT*kT*kA*eA*eA; antisense) [Compound 1736493] | 0.14 | 73 | 85 | 67 | 58 | 50 | 35 | 25 | 8 | 6 | 8 | 47 | 51 | 57 | 51 | – | – | – | – | – | –
1736513 (e[5mC]*eTeT*eG*eG*kT*dG[ms]dA[ms]dA[ms]dT*d[5mC]*dT*dT*dT*dA[ms]dT*eT*eA*eA*eA; antisense) [Compound 1736513] | 0.72 | 106 | 110 | 114 | 89 | 72 | 47 | 37 | 33 | 9 | 4 | 42 | 52 | 53 | 30 | – | – | – | – | – | –
1736514 (e[5mC]*eTeT*eG*kG*kT*dG[ms]dA[ms]dA[ms]dT*d[5mC]*dT*dT*dT*dA[ms]dT*eT*eA*eA*eA; antisense) [Compound 1736514] | 0.67 | 121 | 123 | 96 | 77 | 80 | 46 | 33 | 25 | 23 | 6 | 28 | 54 | 39 | 16 | – | – | – | – | – | –
1736533 (e[5mC]*eT*eT*eG*eGeT*dG[ms]dA[ms]dA[ms]dT*d[5mC]*dT*dT*dT*dA[ms]dT*kT*eA*eA*eA; antisense) [Compound 1736533] | 0.39 | 83 | 83 | 78 | 74 | 55 | 50 | 38 | 28 | 13 | 5 | 34 | 54 | 57 | 49 | – | – | – | – | – | –
1746812 (k[5mC]*dT[ms]dT[ms]dG[ms]kG*kT*dG[ms]dA[ms]dA[ms]dT*d[5mC]*dT*dT*dT*dA[ms]dT*dT[ms]kA*kA*kA; antisense) [Compound 1746812] | – | – | – | – | – | – | – | – | – | – | – | – | – | – | – | 105 | 90 | 102 | 86 | 76 | APOE RNA (% UTC) (human APOE RNA [4]; 13 nM): 109 % UTC; APOE RNA (% UTC) (human APOE RNA [4]; 1,280 nM): 51 % UTC; APOE RNA (% UTC) (human APOE RNA [4]; 3,200 nM): 31 % UTC; APOE RNA (% UTC) (human APOE RNA [4]; 8,000 nM): 19 % UTC; APOE RNA (% UTC) (human APOE RNA [4]; 20,000 nM): 11 % UTC; IC50 (human APOE RNA [4]): 1.5 µM; APOE RNA (% control) Cortex (human APOE RNA [2]; [7]): 68 % control; APOE RNA (% control) Spinal Cord (human APOE RNA [2]; [8]): 79 % control
1746797 (k[5mC]*kT*dT[ms]dG[ms]dG[ms]kT*dG[ms]dA[ms]dA[ms]dT*d[5mC]*dT*dT*dT*dA[ms]dT*kT*dA[ms]kA*kA; antisense) [Compound 1746797] | – | – | – | – | – | – | – | – | – | – | – | – | – | – | – | 139 | 150 | 143 | 129 | 113 | APOE RNA (% UTC) (human APOE RNA [4]; 13 nM): 128 % UTC; APOE RNA (% UTC) (human APOE RNA [4]; 1,280 nM): 71 % UTC; APOE RNA (% UTC) (human APOE RNA [4]; 3,200 nM): 37 % UTC; APOE RNA (% UTC) (human APOE RNA [4]; 8,000 nM): 42 % UTC; APOE RNA (% UTC) (human APOE RNA [4]; 20,000 nM): 18 % UTC; IC50 (human APOE RNA [4]): 3.77 µM; APOE RNA (% control) Cortex (human APOE RNA [2]; [7]): 72 % control; APOE RNA (% control) Spinal Cord (human APOE RNA [2]; [8]): 68 % control
1746793 (k[5mC]*dT[ms]dT[ms]dG[ms]kG*kT*dG[ms]dA[ms]dA[ms]dT*d[5mC]*dT*dT*dT*dA[ms]dT*kT*kA*dA[ms]kA; antisense) [Compound 1746793] | – | – | – | – | – | – | – | – | – | – | – | – | – | – | – | 102 | 96 | 96 | 53 | 54 | APOE RNA (% UTC) (human APOE RNA [4]; 1,280 nM): 34 % UTC; APOE RNA (% UTC) (human APOE RNA [4]; 3,200 nM): 31 % UTC; APOE RNA (% UTC) (human APOE RNA [4]; 8,000 nM): 1 % UTC; APOE RNA (% UTC) (human APOE RNA [4]; 20,000 nM): 2 % UTC; IC50 (human APOE RNA [4]): 0.56 µM; APOE RNA (% control) Cortex (human APOE RNA [2]; [7]): 86 % control; APOE RNA (% control) Spinal Cord (human APOE RNA [2]; [8]): 47 % control
1736528 (e[5mC]*eT*eT*eG*eG*eTdG[ms]dA[ms]dA[ms]dT*d[5mC]*dT*dT*dT*dA[ms]dT*kT*eA*eA*eA; antisense) [Compound 1736528] | 1.63 | 100 | 112 | 107 | 116 | 84 | 62 | 50 | 39 | 23 | 16 | 57 | 56 | – | – | – | – | – | – | – | –

Reference: patent US20250353873A1, “COMPOUNDS AND METHODS FOR MODULATING APOE EXPRESSION” (Ionis Pharmaceuticals, Inc., priority 2024, published 2025)
